Source: patent US20130158049A1, “7-AZAINDOLE INHIBITORS OF CRAC” (Hoffmann-La Roche Inc., priority 2011, published 2013)

These compounds were tested on Jurkat IL-2 Production (assay: Jurkat IL-2 Production Assay). Conditions: Homo sapiens; Jurkat cell (ATCC); PHA 5 μg/mL with 1% FBS, or PMA/Ionomycin with 30% FBS (table does not say which); incubation 18 h~20 h.
Type: cell-based
Method: Jurkat IL-2 Production Assay
Cell: Jurkat cell (ATCC) was grown in RPMI 1640 with 10% FBS and 1% penicillin/streptomycin. The cell density was kept at 1.2˜1.8×10^6/mL in culture flask before seeding into culture plate, and the cell density in the plate was 0.5×10^6/[…]/well.
Culture media: RPMI 1640 with 1% FBS or 30% FBS for high serum assay.
Test compound: serial dilution was done in 100% DMSO, and intermediate dilution was done with RPMI 1640 medium with 1% FBS. The DMSO final concentration in culture well was 0.25%.
Stimulant: PHA (Sigma#L9017-10MG) was used for the assay with 1% FBS in culture medium, and added after 10 minutes exposure of cell to compound/DMSO. The PHA final concentration in culture well was 5 μg/mL. PMA (Sigma# P-8139 5MG)/Ionomycin (Sigma# I0634-5MG) was used for the assay with 30% FBS in culture medium, and added at same time point as the 1% FBS culture assay. The final concentration of PMA was 50 ng/mL, and Ionomycin final concentration was 500 ng/mL.
Incubation: at 37° C. with 5% CO2 and 95% humidity for 18 h˜20 h.
IC50: IC50 was calculated with the data analysis software XLfit4, General Pharmacology model 251.

Structure (SMILES) | IC50
Cn1nc(C(F)(F)F)cc1-c1cnc2[nH]c(-c3c(F)cccc3F)cc2c1 [Example 6, 2-(2,6-Difluoro-phenyl)-5-(2-methyl-5-trifluoromethyl-2H-pyrazol-3-yl)-1H-pyrrolo[2,3-b]pyridine] | 113 nM
CCn1nc(-c2cccnc2)cc1-c1cnc2[nH]c(-c3c(F)cccc3F)cc2c1 [Example 4, 2-(2,6-Difluoro-phenyl)-5-(2-ethyl-5-pyridin-3-yl-2H-pyrazol-3-yl)-1H-pyrrolo[2,3-b]pyridine] | 134 nM
Cc1sc(-c2cnccn2)nc1-c1cnc2[nH]c(-c3c(F)cccc3Cl)cc2c1 [Example 18, 2-(2-Chloro-6-fluoro-phenyl)-5-(5-methyl-2-pyrazin-2-yl-thiazol-4-yl)-1H-pyrrolo[2,3-b]pyridine] | 39 nM
COc1ccc(-c2cnc3[nH]c(-c4c(F)cccc4F)cc3c2)c(OC)c1 [Example 2, 2-(2,6-Difluoro-phenyl)-5-(2,4-dimethoxy-phenyl)-1H-pyrrolo[2,3-b]pyridine] | 150 nM
CCn1nc(-c2cccnc2)cc1-c1cnc2[nH]c(-c3ccncc3C)cc2c1 [Example 22, 5-(1-Ethyl-3-(pyridin-3-yl)-1H-pyrazol-5-yl)-2-(3-methylpyridin-4-yl)-1H-pyrrolo[2,3-b]pyridine] | 163 nM
COC(=O)c1ccc(-c2cnc3[nH]c(-c4c(F)cccc4F)cc3c2)c(C)c1 [Example 1, 4-[2-(2,6-Difluoro-phenyl)-1H-pyrrolo[2,3-b]pyridin-5-yl]-3-methyl-benzoic acid methyl ester] | 588 nM
CCn1nc(-c2cnccn2)cc1-c1cnc2[nH]c(-c3c(F)cccc3Cl)cc2c1 [Example 17, 2-(2-Chloro-6-fluoro-phenyl)-5-(2-ethyl-5-pyrazin-2-yl-2H-pyrazol-3-yl)-1H-pyrrolo[2,3-b]pyridine] | 15 nM
COc1cc(C#N)ccc1-c1cnc2[nH]c(-c3c(F)cccc3Cl)cc2c1 [Example 19, 4-[2-(2-Chloro-6-fluoro-phenyl)-1H-pyrrolo[2,3-b]pyridin-5-yl]-3-methoxy-benzonitrile] | 35 nM
CCn1nc(-c2cnccn2)cc1-c1cnc2[nH]c(-c3ccncc3C)cc2c1 [Example 21, 5-(2-Ethyl-5-pyrazin-2-yl-2H-pyrazol-3-yl)-2-(3-methyl-pyridin-4-yl)-1H-pyrrolo[2,3-b]pyridine] | 158 nM
Cc1cc(S(C)(=O)=O)ncc1-c1cnc2[nH]c(-c3c(F)cccc3Cl)cc2c1 [Example 20, 2-(2-Chloro-6-fluoro-phenyl)-5-(6-methanesulfonyl-4-methyl-pyridin-3-yl)-1H-pyrrolo[2,3-b]pyridine] | 72 nM
Cc1cc(C(=O)NCCO)ncc1-c1cnc2[nH]c(-c3c(F)cccc3F)cc2c1 [Example 12, 5-[2-(2,6-Difluoro-phenyl)-1H-pyrrolo[2,3-b]pyridin-5-yl]-4-methyl-pyridine-2-carboxylic acid (2-hydroxy-ethyl)-amide] | 997 nM
Cn1nc(-c2cccnc2)nc1-c1cnc2[nH]c(-c3c(F)cccc3F)cc2c1 [Example 10, 2-(2,6-Difluoro-phenyl)-5-(2-methyl-5-pyridin-3-yl-2H-[1,2,4]triazol-3-yl)-1H-pyrrolo[2,3-b]pyridine] | 106 nM
CCn1nc(-c2cccnc2)nc1-c1cnc2[nH]c(-c3c(F)cccc3F)cc2c1 [Example 9, 2-(2,6-Difluoro-phenyl)-5-(2-ethyl-5-pyridin-3-yl-2H-[1,2,4]-triazol-3-yl)-1H-pyrrolo[2,3-b]pyridine] | 56 nM
Cc1cc(S(=O)(=O)N(C)C)ccc1-c1cnc2[nH]c(-c3c(F)cccc3Cl)cc2c1 [Example 16, 4-[2-(2-Chloro-6-fluoro-phenyl)-1H-pyrrolo[2,3-b]pyridin-5-yl]-3,N,N-trimethyl-benzenesulfonamide] | 99 nM
Cc1sc(-c2ncco2)nc1-c1cnc2[nH]c(-c3c(F)cccc3F)cc2c1 [Example 8, 2-(2,6-Difluoro-phenyl)-5-(5-methyl-2-oxazol-2-yl-thiazol-4-yl)-1H-pyrrolo[2,3-b]pyridine] | 102 nM
Cc1sc(-c2cnccn2)nc1-c1cnc2[nH]c(-c3c(F)cccc3F)cc2c1 [Example 14, 2-(2,6-Difluoro-phenyl)-5-(5-methyl-2-pyrazin-2-yl-thiazol-4-yl)-1H-pyrrolo[2,3-b]pyridine] | 36 nM
CCc1sc(-c2cccnc2)nc1-c1cnc2[nH]c(-c3c(F)cccc3F)cc2c1 [Example 13, 2-(2,6-Difluoro-phenyl)-5-(5-ethyl-2-pyridin-3-yl-thiazol-4-yl)-1H-pyrrolo[2,3-b]pyridine] | 15 nM
CCn1nc(C(F)(F)F)cc1-c1cnc2[nH]c(-c3c(F)cccc3F)cc2c1 [Example 7, 2-(2,6-Difluoro-phenyl)-5-(2-ethyl-5-trifluoromethyl-2H-pyrazol-3-yl)-1H-pyrrolo[2,3-b]pyridine] | 54 nM
CNC(=O)c1cc(C)c(-c2cnc3[nH]c(-c4c(F)cccc4F)cc3c2)cn1 [Example 11, 5-[2-(2,6-Difluoro-phenyl)-1H-pyrrolo[2,3-b]pyridin-5-yl]-4-methyl-pyridine-2-carboxylic acid methylamide] | 242 nM
Cn1nc(C(F)(F)F)cc1-c1cnc2[nH]c(-c3c(F)cccc3Cl)cc2c1 [Example 15, 2-(2-Chloro-6-fluoro-phenyl)-5-(2-methyl-5-trifluoromethyl-2H-pyrazol-3-yl)-1H-pyrrolo[2,3-b]pyridine] | 53 nM
Cc1cc(S(=O)(=O)N(C)C)ccc1-c1cnc2[nH]c(-c3c(F)cccc3F)cc2c1 [Example 3, 4-[2-(2,6-Difluoro-phenyl)-1H-pyrrolo[2,3-b]pyridin-5-yl]-3,N,N-trimethyl-benzenesulfonamide] | 124 nM
Cc1sc(-c2cccnc2)nc1-c1cnc2[nH]c(-c3c(F)cccc3F)cc2c1 [Example 5, 2-(2,6-Difluoro-phenyl)-5-(5-methyl-2-pyridin-3-yl-thiazol-4-yl)-1H-pyrrolo[2,3-b]pyridine] | 90 nM

Now from value to compound:

IC50 | Structure (SMILES)
248 nM | Cc1cc(S(C)(=O)=O)ncc1-c1cnc2[nH]c(-c3ccncc3C)cc2c1 [Example 24, 5-(4-Methyl-6-(methylsulfonyl)pyridin-3-yl)-2-(3-methylpyridin-4-yl)-1H-pyrrolo[2,3-b]pyridine]
438 nM | Cc1cc(S(C)(=O)=O)ncc1-c1cnc2[nH]c(-c3cnccc3C)cc2c1 [Example 27, 5-(4-Methyl-6-(methylsulfonyl)pyridin-3-yl)-2-(4-methylpyridin-3-yl)-1H-pyrrolo[2,3-b]pyridine]
441 nM | CCn1nc(-c2cccnc2)cc1-c1cnc2[nH]c(-c3c(C)noc3C)cc2c1 [Example 30, 2-(3,5-Dimethyl-isoxazol-4-yl)-5-(2-ethyl-5-pyridin-3-yl-2H-pyrazol-3-yl)-1H-pyrrolo[2,3-b]pyridine]
108 nM | CCn1nc(-c2cccnc2)cc1-c1cnc2[nH]c(C3CCCCC3)cc2c1 [Example 32, 2-Cyclohexyl-5-(1-ethyl-3-(pyridin-3-yl)-1H-pyrazol-5-yl)-1H-pyrrolo[2,3-b]pyridine]
107 nM | Cc1cc(S(C)(=O)=O)ncc1-c1cnc2[nH]c(C3CCCCC3)cc2c1 [Example 31, 2-cyclohexyl-5-(4-methyl-6-(methylsulfonyl)pyridin-3-yl)-1H-pyrrolo[2,3-b]pyridine]
275 nM | Cc1cc(S(C)(=O)=O)ncc1-c1cnc2[nH]c(-c3cnccc3Cl)cc2c1 [Example 29, 2-(4-Chloropyridin-3-yl)-5-(4-methyl-6-(methylsulfonyl)pyridin-3-yl)-1H-pyrrolo[2,3-b]pyridine]
145 nM | CCn1nc(C(F)(F)F)cc1-c1cnc2[nH]c(-c3ccncc3C)cc2c1 [Example 23, 5-(1-ethyl-3-(trifluoromethyl)-1H-pyrazol-5-yl)-2-(3-methylpyridin-4-yl)-1H-pyrrolo[2,3-b]pyridine]
111 nM | CCn1nc(-c2cnccn2)cc1-c1cnc2[nH]c(C3CCCCC3)cc2c1 [Example 33, 2-Cyclohexyl-5-(1-ethyl-3-(pyrazin-2-yl)-1H-pyrazol-5-yl)-1H-pyrrolo[2,3-b]pyridine]
428 nM | CCn1nc(-c2cnccn2)cc1-c1cnc2[nH]c(-c3cnccc3C)cc2c1 [Example 26, 5-(2-Ethyl-5-pyrazin-2-yl-2H-pyrazol-3-yl)-2-(4-methyl-pyridin-3-yl)-1H-pyrrolo[2,3-b]pyridine]
185 nM | CCn1nc(-c2cccnc2)cc1-c1cnc2[nH]c(-c3cnccc3Cl)cc2c1 [Example 28, 2-(4-chloropyridin-3-yl)-5-(1-ethyl-3-(pyridin-3-yl)-1H-pyrazol-5-yl)-1H-pyrrolo[2,3-b]pyridine]
